Assay results published in patent publication US20130029983A1, “AMINOTHIENOPYRIDAZINE INHIBITORS OF TAU ASSEMBLY” (priority 2009, published 2013).
Read-outs that look alike come from different tables or passages of the source.

Key:
K18PL tau = molecular target: T1, K18PL tau (Homo sapiens, UniProt P10636, P618L); assay: Heparin-induced K18PL tau fibrillization assay monitored by ThT fluorescence; type: biochemical; details: for Emax: read-out: K18PL (ThT) maximal percent inhibition achieved in the assay
T1 construct: (K18PL; amino acids 244-369); made in house
T1 sequence (P10636 561-686 P618L): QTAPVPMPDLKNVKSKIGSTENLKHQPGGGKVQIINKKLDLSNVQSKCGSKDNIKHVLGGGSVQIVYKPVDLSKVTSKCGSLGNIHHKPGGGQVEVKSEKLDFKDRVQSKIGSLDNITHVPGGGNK
Summary of the method: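 K18PL (30 μM stock, with 0.24 μM Alexa Red-labeled K18PL) plus 40 μM heparin and compound, fibrillized 6 h at 37 °C. Fibrils read by ThT (12.5 μM final, in 100 mM glycine pH 8.5, 1 h RT), ex 450/em 510 nm. Percent inhibition scaled between DMSO wells and non-fibrillizing K18 KD control wells.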

full-length tau (tau40) = molecular target: T2, full-length tau (tau40) (Homo sapiens, UniProt P10636); assay: Tau40 fibrillization sedimentation assay; type: biochemical; details: SDS-PAGE of soluble and insoluble fractions after centrifugation; for Emax: read-out: Tau40 Sed. Assay, maximal percent inhibition of tau40 fibrillization
T2 construct: Full length tau (Tau40; amino acids 1-441); made in house
T2 sequence (P10636 1-441 isoform P10636-8): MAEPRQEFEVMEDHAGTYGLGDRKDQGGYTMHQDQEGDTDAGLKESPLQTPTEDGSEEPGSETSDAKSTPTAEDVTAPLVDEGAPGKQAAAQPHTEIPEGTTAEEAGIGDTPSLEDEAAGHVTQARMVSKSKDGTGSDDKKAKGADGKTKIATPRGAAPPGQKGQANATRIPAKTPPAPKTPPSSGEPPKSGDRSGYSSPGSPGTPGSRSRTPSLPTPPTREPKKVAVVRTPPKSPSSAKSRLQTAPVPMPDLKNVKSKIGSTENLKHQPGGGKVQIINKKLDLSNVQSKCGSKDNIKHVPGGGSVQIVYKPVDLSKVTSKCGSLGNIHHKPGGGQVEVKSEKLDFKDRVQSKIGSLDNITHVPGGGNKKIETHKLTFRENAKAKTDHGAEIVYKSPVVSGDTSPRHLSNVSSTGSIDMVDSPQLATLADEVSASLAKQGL
Procedure: The determination of compound-induced effects on the amount of tau that remains soluble upon centrifugation, and EM visualization of tau species following incubation with test compounds, were as previously described (Crowe, A., Ballatore, C., Hyde, E., Trojanowski, J. Q., and Lee, V. M. Y. (2007) Biochemical and Biophysical Research Communications 358, 1-6). […]

[1] = Brain and plasma drug levels 1 h after i.p. administration (LC-MS/MS); type: in vivo; details: mice, 1 h after i.p. 5 mg/Kg
Procedure: Test compounds underwent preliminary evaluations of brain penetration, in which 5 mg/Kg of each compound was administered intraperitoneally (i.p.) to a group of three normal mice; drug levels in brain and plasma were determined at a single time-point (1 h) by LC-MS/MS using pre-validated calibration curves. […] However, both esters appeared to have relatively short half-lives in plasma, as indicated by the limited amount of parent drug detected after 1 h from administration of the compounds. […] CNDR-51362 was selected for full PK analysis in which brain and plasma drug levels were determined at six time points (i.e., 30 min, 1 h, 2 h, 4 h, 8 h, and 16 h). The results from this experiment, illustrated in FIG. 6A, confirmed that the total B/P exposure ratio over 16 h is 1.6. […] Finally, in order to investigate the potential for ATPZ congeners to be orally administered, we evaluated brain and plasma level of CNDR-51362 and CNDR-51349 after oral administration of 5 mg/Kg.
Brain tissue was homogenized in 10 mM ammonium acetate, pH 5.7 (1:2; w/v) using a handheld sonic homogenizer. Plasma was obtained from blood that was collected into a 1.5 mL tube containing 0.5M EDTA solution and subjected to centrifugation for 10 min. at 4500 g at 4° C. Aliquots (50 μL) of brain homogenate or plasma were mixed with 0.2 mL of acetonitrile, centrifuged at 15,000 g, and the resulting supernatants were used for subsequent LC-MS/MS analysis. The LC-MS/MS system was comprised of an Aquity HPLC and a TQ MS that was controlled using MassLynx software (Waters Corporation, Milford, Mass., USA). Compounds were detected using multiple reaction monitoring (MRM) of their specific collision-induced ion transitions. Samples (5 μL) were separated on an Aquity BEH C18 column (1.7 μm, 2.1×50 mm) at 35° C. Operation was in positive electrospray ionization mode, with mobile phase A of 0.1% (v/v) formic acid, and B of either acetonitrile or methanol with 0.1% (v/v) formic acid at a flow rate of 0.6 mL/min using a gradient from 5% to 95% B over two min., followed by wash and re-equilibration steps. The MS was operated with a desolvation temperature of 450° C. and a source temperature of 150° C. Desolvation and source nitrogen gas flows were 900 L/hr and 50 L/hr, respectively. Source and MS/MS voltages were optimized for each compound using the MassLynx auto tune utility. Standard curves were generated for each compound from brain homogenate and plasma samples that had compound added at 4, 40, 400 and 4000 ng/mL and extracted as above. Peak areas were plotted against concentration and a 1/x weighted linear regression curve was used to quantify the tissue-derived samples using the average peak area from triplicate injections.

[2] = Table 5, read-out: K18PL (ThT) IC50 value

## Nc1scc2c(C(=O)NC3CC3)nn(-c3ccc(Cl)cc3)c(=O)c12 [CNDR-51362, 5-Amino-3-(4-chlorophenyl)-N-cyclopropyl-4-oxo-3,4-dihydrothieno[3,4-d]pyridazine-1-carboxamide]
K18PL tau; [2]
  IC50: 4.6 µM
K18PL tau; Table 5
  Emax: 87%
full-length tau (tau40)
  Tau40 Sed. Assay, maximal percent inhibition of tau40 fibrillization: 58%
  Emax: 50 to 60%
[1]
  B/P, ratio between brain/plasma drug level: 1.6

## CCOC(=O)c1nn(-c2ccc(Cl)cc2)c(=O)c2c(N)scc12 [Compound 17, Ethyl 5-amino-3-(4-chlorophenyl)-4-oxo-3,4-dihydrothieno[3,4-d]pyridazine-1-carboxylate]
K18PL tau; Table 3, highest tested concentration (80 μM), read-out: Tau ThT Assay % Inhib.
  inhibition at 80 µM: 84%
K18PL tau; Table 3, logarithm of IC50, K18PL tau ThT fluorescence inhibition, NC = not calculated due to insufficient activity, read-out: Tau ThT Assay Log IC50 (converted)
  IC50: 3.98 µM
K18PL tau; [2]
  IC50: 3.1 µM
K18PL tau; Table 5
  Emax: 71%
full-length tau (tau40)
  Tau40 Sed. Assay, maximal percent inhibition of tau40 fibrillization: 48%
  Emax: 50 to 60%
[1]; 5 mg/kg
  B/P, ratio between brain/plasma drug level: 3.3
[1]; listed as CNDR-51346, 5 mg/kg
  B/P, ratio between brain/plasma drug level: comparatively higher B/P ratio
